Assays:
hNLRP3 = target: T1, hNLRP3 (Homo sapiens, UniProt Q96P20); assay: Measurement of IL-1β production in PMA-differentiated THP-1 cells (hNLRP3 agonist; ELISA, alternative and hTRF procedures); type: cell-based
T1 construct: THP-1 cells were purchased from the American Type Culture Collection; host or cells: THP-1 cells, PMA-differentiated
Protocol: Measurement of IL-1β production in PMA-differentiated THP-1 cells THP-1 cells were purchased from the American Type Culture Collection and sub-cultured according to instructions from the supplier. Prior to experiments, cells were cultured in RPMI 1640 containing 10% heat inactivated FBS, penicillin (100 units/ml) and streptomycin (100 μg/ml), and maintained in log phase prior to experimental setup. Prior to the experiment THP-1 were treated with PMA (Phorbol 12-myristate 13-acetate) ([…]) for 24 hours. The day of the experiment the media was removed and attaching cells were treated with trypsin for 2 minutes, cells were then collected, washed with PBS (phosphate buffer saline), spin down, resuspended in 2% heat inactivated FBS with RPMI at a concentration of 1×10^6 cells/ml, and 100 μl was plated in a 96 well plate. Compounds were dissolved in dimethyl sulfoxide (DMSO) and added to the culture medium to achieve desired concentration (e.g. 100, 30, 10, 3, 1, 0.3 or 0.1 μM). Cells were incubated with compounds for 4 hours. Cell free supernatant was collected and the production of […] was evaluated by ELISA. A vehicle only control was run concurrently with each experiment. Final DMSO concentration was 1%.
Measurement of IL-1β Production in PMA-Differentiated THP-1 Cells (Alternative Procedure)
THP-1 cells were purchased from the American Type Culture Collection and sub-cultured according to instructions from the supplier. Prior to experiments, cells were cultured in RPMI 1640 containing 10% heat inactivated FBS, penicillin (100 units/ml), streptomycin (100 μg/ml), HEPES (10 mM) and sodium pyruvate (1 mM) and maintained in log phase prior to experimental setup. Prior to the experiment, THP-1 cells were treated with PMA (Phorbol 12-myristate 13-acetate) (20 μg/ml) overnight. The day of the experiment, the media was removed and attached cells were treated with trypsin for 2 minutes, cells were then collected, washed with PBS (phosphate buffer saline), pelleted by centrifugation and resuspended in 2% heat inactivated FBS with RPMI at a concentration of 50,000 cells/well in a 384 well plate. Cell free supernatant was collected and the production of IL-1β was evaluated by ELISA. Compounds were dissolved in dimethyl sulfoxide (DMSO) and added to the culture medium to achieve desired concentration (e.g. 100, 30, 10, 3, 1, 0.3 or 0.1 μM). Cells were incubated with compounds for 2 hours. A vehicle only control was run concurrently with each experiment. Final DMSO concentration was 1%.
Measurement of IL-1β Production—hTRF Protocol (Second Alternative Procedure)
Serial dilutions of compounds in DMSO were added to low volume 384 well plates at 100 nl/well using an ECHO 550 acoustic dispenser (Labcyte) to achieve final starting concentration of 10 μM in assay.
THP-1 cells in RPMI (Gibco, 11875) media with 10% FBS at a density of 1×10^6 cell/ml in a T175 flask were treated with a final concentration of phorbol 12-myristate 13-acetate (PMA) (Sigma, P1585) of 50 ng/ml overnight at 37° C. at 5% CO2 for differentiation. Cells were harvested the next day after rinsing well with dPBS using 0.5% trypsin. A cell solution was prepared of 1×10^6 cells/ml for 50,000 cells in 50 μl/well in RPMI media with 2% FBS. Cells were plated using a multichannel pipette onto the compound dilutions in Greiner, 384 well, black clear bottom tissue culture treated plates (781090). The plates were incubated in 37° C. incubator at 5% CO2 for 2 hours.
After the 2 hour incubation, the cell plates were spun in the centrifuge for 5 minutes at 1200 rpm. Using the Felix (CyBio), 8 μl of the supernatant was transferred to 384 well, low volume, white proxy plates. (Perkin Elmer, 6008230). A human IL1beta hTRF kit was used to analyze the supernatant (CISBIO, 62HIL1BPEG). The kit instructions were followed for preparing the IL1Beta standard curve and then the antibodies from the kit were diluted 1:40 rather than 1:20 as kit instructed.

TLR7 = target: T2, TLR7 (Homo sapiens, UniProt Q9NYK1); assay: In vitro human TLR7 binding reporter assay (HEK-Blue, NF-kB/AP1-inducible SEAP); type: cell-based; conditions: activity range symbols
T2 construct: host or cells: HEK-Blue cells (human HEK) co-expressing TLR7 and an NF-kB/AP1-inducible SEAP reporter
T2 sequence (Q9NYK1 27-1049): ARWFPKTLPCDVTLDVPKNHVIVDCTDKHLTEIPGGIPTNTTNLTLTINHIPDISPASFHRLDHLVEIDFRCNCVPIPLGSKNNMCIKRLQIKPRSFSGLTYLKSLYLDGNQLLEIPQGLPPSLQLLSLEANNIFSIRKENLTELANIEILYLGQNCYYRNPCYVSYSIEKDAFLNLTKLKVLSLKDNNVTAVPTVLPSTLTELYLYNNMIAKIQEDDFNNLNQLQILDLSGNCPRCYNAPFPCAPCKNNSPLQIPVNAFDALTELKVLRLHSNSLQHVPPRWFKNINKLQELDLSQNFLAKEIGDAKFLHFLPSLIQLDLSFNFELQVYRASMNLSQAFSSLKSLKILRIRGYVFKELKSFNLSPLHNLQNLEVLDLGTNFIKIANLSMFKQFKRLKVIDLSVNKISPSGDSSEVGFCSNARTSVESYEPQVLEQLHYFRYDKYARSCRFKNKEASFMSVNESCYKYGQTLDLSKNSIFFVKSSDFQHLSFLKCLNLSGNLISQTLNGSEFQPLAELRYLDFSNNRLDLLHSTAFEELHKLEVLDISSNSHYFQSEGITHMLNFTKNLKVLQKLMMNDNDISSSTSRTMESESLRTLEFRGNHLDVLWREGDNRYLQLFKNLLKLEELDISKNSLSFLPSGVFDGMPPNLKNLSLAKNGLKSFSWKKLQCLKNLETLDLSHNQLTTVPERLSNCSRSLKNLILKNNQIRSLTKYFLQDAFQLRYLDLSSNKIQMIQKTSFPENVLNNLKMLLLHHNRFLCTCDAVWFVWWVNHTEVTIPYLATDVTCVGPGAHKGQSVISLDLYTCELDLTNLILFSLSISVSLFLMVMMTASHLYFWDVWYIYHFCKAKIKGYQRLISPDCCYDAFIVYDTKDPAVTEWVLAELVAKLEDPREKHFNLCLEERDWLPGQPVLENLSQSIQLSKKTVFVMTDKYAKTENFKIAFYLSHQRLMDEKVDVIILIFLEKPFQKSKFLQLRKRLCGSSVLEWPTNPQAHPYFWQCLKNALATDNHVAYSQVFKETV
Protocol: In Vitro Human TLR7 and TLR8 Binding Reporter Assays
Logarithmically-growing human HEK-Blue cells co-expressing a TLR7 or TLR8 gene and a NF-kB/AP1-inducible SEAP (secreted embryonic alkaline phosphatase; Invivogen, San Diego, CA) reporter gene are added to individual wells of a 384-well plate (15,000 cells per 20 μL per well) and maintained for 24 h at 37° C., 5% CO2. Test compounds or DMSO are distributed to separate wells the next day using acoustic liquid handling technology (100 nL per well) and cells are subsequently incubated for 18 h at 37° C., 5% CO2. Cellular SEAP production is measured using an Envision plate reader instrument thirty minutes after adding freshly-made Quanti-Blue reagent (prepared by following manufacturer instructions; Invivogen, San Diego, CA) to the HEK-Blue TLR Nf-kB-SEAP cell reactions. All EC50 values (half-maximal effective concentration) are determined using proprietary data analysis software.

T1 sequence (Q96P20 whole entry): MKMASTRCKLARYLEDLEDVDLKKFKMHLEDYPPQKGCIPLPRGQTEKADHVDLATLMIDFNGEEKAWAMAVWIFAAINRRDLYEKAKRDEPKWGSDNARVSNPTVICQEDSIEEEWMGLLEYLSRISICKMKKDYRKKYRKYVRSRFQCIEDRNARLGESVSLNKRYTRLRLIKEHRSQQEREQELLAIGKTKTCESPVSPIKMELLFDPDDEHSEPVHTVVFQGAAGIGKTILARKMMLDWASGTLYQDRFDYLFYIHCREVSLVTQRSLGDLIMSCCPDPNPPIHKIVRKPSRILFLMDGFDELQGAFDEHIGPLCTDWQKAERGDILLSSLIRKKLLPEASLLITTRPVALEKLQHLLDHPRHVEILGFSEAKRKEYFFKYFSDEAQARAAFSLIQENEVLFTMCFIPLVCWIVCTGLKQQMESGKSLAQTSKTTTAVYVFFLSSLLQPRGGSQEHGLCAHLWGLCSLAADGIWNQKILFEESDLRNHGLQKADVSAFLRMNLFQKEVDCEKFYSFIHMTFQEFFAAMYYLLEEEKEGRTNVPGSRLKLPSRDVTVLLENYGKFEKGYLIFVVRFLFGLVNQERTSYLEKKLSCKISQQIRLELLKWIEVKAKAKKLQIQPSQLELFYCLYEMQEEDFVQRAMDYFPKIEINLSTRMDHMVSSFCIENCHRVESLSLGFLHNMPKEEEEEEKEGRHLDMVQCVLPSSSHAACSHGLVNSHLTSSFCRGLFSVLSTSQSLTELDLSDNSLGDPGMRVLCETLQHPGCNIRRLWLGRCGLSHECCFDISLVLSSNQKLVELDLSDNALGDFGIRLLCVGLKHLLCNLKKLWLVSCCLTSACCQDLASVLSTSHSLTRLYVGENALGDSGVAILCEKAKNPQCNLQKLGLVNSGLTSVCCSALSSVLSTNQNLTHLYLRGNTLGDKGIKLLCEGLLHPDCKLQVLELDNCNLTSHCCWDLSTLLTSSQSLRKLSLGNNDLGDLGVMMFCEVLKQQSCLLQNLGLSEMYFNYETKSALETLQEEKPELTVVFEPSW

Compound	EC50 (hNLRP3) [µM]	EC50 (TLR7) [µM]
Nc1nc2cc(-c3cc[nH]n3)ccc2c2[nH]c(CNC(=O)C3CC3)nc12 [Compound 105]	0.69	
CC(C)C(=O)NCc1nc2c(N)nc3cc(-c4cc[nH]n4)ccc3c2[nH]1 [Compound 107]	0.64	
CC(=O)NCc1nc2c(N)nc3cc(-c4cc[nH]n4)ccc3c2[nH]1 [Compound 113, N-((4-Amino-7-(1H-pyrazol-3-yl)-1H-imidazo[4,5-c]quinolin-2-yl)methyl)acetamide]	0.56	
CS(=O)(=O)NCc1nc2c(N)nc3cc(-c4cc[nH]n4)ccc3c2[nH]1 [Compound 116]	1.16	
CCN(Cc1nc2c(N)nc3cc(-c4cc[nH]n4)ccc3c2[nH]1)C(=O)c1ccccc1 [Compound 126]	2.1	
CCN(Cc1nc2c(N)nc3cc(-c4cc[nH]n4)ccc3c2[nH]1)C(=O)CO [Compound 133]	3.5	
CCN(Cc1nc2c(N)nc3cc(-n4nccn4)ccc3c2[nH]1)C(=O)OC(C)(C)C [Compound 135]	4.6	
Nc1nc2cc(-c3cc[nH]n3)ccc2c2[nH]c(CN3CC(c4ccccc4)CC3=O)nc12 (stereo not drawn) [Compound 137]	5.4	
CCN(C(C)=O)C(C)c1nc2c(N)nc3cc(Br)ccc3c2[nH]1 (stereo not drawn) [Compound 182, N-[1-(4-amino-7-bromo-1H-imidazo[4,5-c]quinolin-2-yl)ethyl]-N-ethylacetamide]	5.9	> 100
COc1ccc(-c2ccc3c(c2)nc(N)c2nc(CN4CCCC4=O)[nH]c23)cc1 [Compound 292, 1-[[4-amino-7-(4-methoxyphenyl)-1H-imidazo[4,5-c]quinolin-2-yl]methyl]pyrrolidin-2-one]	4.48	
COc1ccc(-c2ccc3c(c2)nc(N)c2nc(CN4CCCC4=O)[nH]c23)cn1 [Compound 304, 1-[[4-amino-7-(6-methoxypyridin-3-yl)-1H-imidazo[4,5-c]quinolin-2-yl]methyl]pyrrolidin-2-one]	36.4	
Nc1nc2cc(-c3cccnc3F)ccc2c2[nH]c(CN3CCCC3=O)nc12 [Compound 307, 1-[[4-amino-7-(2-fluoropyridin-3-yl)-1H-imidazo[4,5-c]quinolin-2-yl]methyl]pyrrolidin-2-one]	12.3	
Nc1nc2cc(-c3ccsc3)ccc2c2[nH]c(CN3CCCC3=O)nc12 [Compound 308, 1-[(4-amino-7-thiophen-3-yl-1H-imidazo[4,5-c]quinolin-2-yl)methyl]pyrrolidin-2-one]	1.06	
Nc1nc2ccccc2c2c1nc(CN1CCCC1=O)n2CCCC(=O)N1CCSCC1 [Compound 345]	64	
CN1CCN(Cc2nc3c(N)nc4cc(-c5cc[nH]n5)ccc4c3[nH]2)C(=O)C1 [Compound 350]	10	
Nc1nc2cc(-c3cc[nH]n3)ccc2c2[nH]c(CN3CCOCC3=O)nc12 [Compound 351]	2.17	
Nc1nc2cc(-c3cc[nH]n3)ccc2c2[nH]c(CN3CCCCC3=O)nc12 [Compound 352]	2.23	
CC(C)NCc1nc2c(N)nc3cc(-c4cc[nH]n4)ccc3c2[nH]1 [Compound 421]	0.24	
CCN(Cc1nc2c(N)nc3cc(-c4cccs4)ccc3c2[nH]1)C(=O)OC(C)(C)C [Compound 424]	0.79	> 100
CCN(Cc1nc2c(N)nc3cc(-c4cccs4)ccc3c2[nH]1)C(C)=O [Compound 425]	0.44	> 100
Nc1nc2cc(-c3cccnc3)ccc2c2[nH]c(CN3CCCCC3=O)nc12 [Compound 426]	4.3	> 100
Nc1nc2cc(Br)ccc2c2[nH]c(CN3CCCCC3=O)nc12 [Compound 428]	5.1	> 100
Nc1nc2cc(-n3cccn3)ccc2c2[nH]c(CN3CCOC3=O)nc12 [Compound 429]	5.8	> 100
CN1CCN(Cc2nc3c(N)nc4cc(-c5cc[nH]n5)ccc4c3[nH]2)C(=O)C1 [Compound 432]	~10	
CC(C)(C)OC(=O)N1CCN(Cc2nc3c(N)nc4cc(-c5cccnc5)ccc4c3[nH]2)C(=O)C1 [Compound 433]	11.5	
CCCn1c(CN(CC)C(C)=O)nc2c(N)nc3cc(Br)ccc3c21 [Compound 435]	19.3	> 100

From US12351580B2, “NLRP3 modulators” (Innate Tumor Immunity, Inc., priority 2017, dated 2025)
